The values below come from US10336792B2, “Antimicrobial peptide dendrimers” (priority 2014, dated 2019).

Test [1] in a line: 5(6)-Carboxyfluorescein leakage from lipid vesicles. Particulars: 10 mM TRIS, 107 mM NaCl, pH 7.4; peptide added at 50 s. The method, then:
Preparation A thin lipid film was prepared by evaporating a solution of 25 mg Egg PC or Egg PG in 1 mL MeOH/CHCl3 1/1 on a rotary evaporator (rt) and then in vacuo overnight. The resulting film was hydrated with 1 mL buffer (50 mM CF, 10 mM TIRS, 10 mM NaCl, pH 7.4) for 30 min, subjected to freeze-thaw cycles (7×) and extrusion (15×) through a polycarbonate membrane (pore size 100 nm). Extravesicular components were removed by gel filtration (Sephadex G-50) with 10 mM TRIS, 107 mM NaCl, pH 7.4. Final conditions: ˜2.5 mM Egg PC or Egg PG; inside: 50 mM CF, 10 mM TIRS, 10 mM NaCl, pH 7.4; outside: 10 mM TRIS, 107 mM NaCl, pH 7.4.
Experiment Egg PC or Egg PG stock solutions (37.5 μL) were diluted with a buffer (10 mM TRIS, 107 mM NaCl, pH 7.4) and placed in a thermostated fluorescence cuvette (25° C.) and gently stirred (total volume in the cuvette ˜3000 μL; final lipid concentration ˜31.25 μM). CF efflux was monitored at λem 517 nm (λex 492 nm) as a function of time after addition of 20 μL of peptide dendrimer in buffer (10 mM TRIS, 107 mM NaCl, pH 7.4) with final concentrations of 1, 5, 7.5, 10, 15, 20, 25, 30 μg/mL at t=50 s and 1.2% trition X-100 (30 μL, 0.012% final concentration) at t=300 s. Fluorescence intensities were normalized to fractional emission intensity I(t) using I(t)=(It−I0)/(I∞−I0) where I0 It at peptide dendrimer addition, I∞=It at saturation of lysis.
Bacterial membranes contain relatively large amounts of exposed anionic lipids, while the outer leaflet of the membranes of plants and animals is composed mainly of lipids with no net charge. The charge composition of such membranes can be mimicked with phospholipid vesicles. Large unilamellar vesicles (LUVs) composed of the neutral phospholipid with PC (phosphatidyl choline) or with PG (phosphatidyl glycerol) with negative charges were prepared encapsulating 5(6)-carboxyfluorescein (CF). […] The higher the concentration of MSt-112 the higher is the CF leakage (FIG. 6A). […] Overall the active AMPDs interact with the negatively charged membrane and release the CF.

For test [2], the system named is P. aeruginosa PEJ2.6, PEJ9.1, ZEM1.A, ZEM9.A (clinical isolates). The format is cell-based, Pseudomonas aeruginosa. To be noted: MH medium, 12-18 h. The gist of the method:
(§1)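 Broth microdilution in Müller-Hinton medium, two-fold serial dilutions from a starting 32–256 μg/mL, compounds dissolved in PBS; inoculum about 5×10^5 CFU, incubated 37° C ~18 h. MIC taken as lowest concentration with no visible growth by eye; polymyxin as reference.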

The subject of test [3] is Staphylococcus aureus (COL, MRSA reference strain). The format is cell-based. To be noted: MH medium, 12-18 h. The gist of the method:
as §1

Test [4] relates to Acinetobacter baumannii. Type of test: cell-based. Particulars: MH medium, 12-18 h. The gist of the method:
as §1

The subject of test [5] is Pseudomonas aeruginosa (strain PA01). Type of test: cell-based. Particulars: 25 μg/mL; 0, 1, 3, 6, 8, 24 h. The method, then:
Cell viability was assayed against Pseudomonas aeruginosa (strain PA01). A colony of bacteria was grown in LB-medium overnight at 37° C. The concentration was quantified by measuring absorbance at 600 nm and diluted to OD600=0.1 (1×10^8 CFU/mL). The samples were prepared as stock solutions of 1 mg mL^−1 in H2O and diluted in LB to a concentration of 50 μg/mL in a 96-well microtiterplate (TPP, untreated). The sample solutions (50 μL) were mixed with the diluted bacterial suspension with an OD600 nm of 0.001 (50 μL). […] The plates were incubated at 37° C. for 1, 3, 6, 8 and 24 h. Each time point was assayed on a separate plate. For each test, two columns of the plate were kept for sterility control (SC, broth only) and growth control (GC, broth with bacterial inoculums, no antibiotics). After incubation 15 μL of WST-8 working solution (3.31 mg/mL WST-8 (Ochem Incorporation), 0.074 mg/mL PES (phenazine ethosulfate)) was added to each well and cells were incubated at 37° C. until GC had desired value. After the reaction took place, the final absorbance was read at 450 nm. For calculations, the value of the GC was set to 100% cell viability and the value of the negative control (no bacteria, SC) was set to 0% cell viability. […]
In order to determine the killing kinetics of AMPDs the amount of living bacteria was measured as a function of time after incubation with the AMPDs. […]

Regarding Polymyxin B [reference compound], the “CF leakage from phosphatidylglycerol LUVs” value in test [1] is given as “immediate leakage of CF”. In addition, in test [2], the “MIC P. aeruginosa MDR clinical isolate PEJ2.6” value turned out to be 1 µg/mL, the “MIC P. aeruginosa MDR clinical isolate PEJ9.1” value was determined as 2 µg/mL, the “MIC P. aeruginosa MDR clinical isolate ZEM1A” value was below 1 µg/mL and the “MIC P. aeruginosa MDR clinical isolate ZEM9A” value turned out to be 8 µg/mL. The “MIC S. aureus COL” value in test [3] was 64 µg/mL. In test [4], the “MIC A. baumannii ATCC19606” value is below 1 µg/mL. The “killing kinetics (bacterial survival over 24 hours)” value in test [5] was “kill P. aeruginosa immediately”.
